From ChEMBL document CHEMBL1201862, “PubChem BioAssay data set” (2004)
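The compound was tested at five concentrations on cells cultured in 96-well plates, with a 48-hour exposure period. GI50: concentration for 50% inhibition of growth.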 The source made the active and inactive calls. Cut-off read from the data, not from the text of the source: active = GI50 up to about 1.1 µM and inactive = higher.

How the values were obtained:
Experiment in all cases: NCI anticancer screen, dose series, 48 h
SK-MEL-2 = tested on: SK-MEL-2
EKVX = tested on: EKVX
UACC-257 = tested on: UACC-257
UACC-62 = tested on: UACC-62
DU-145 = tested on: DU-145
SN12C = tested on: SN12C
OVCAR-8 = tested on: OVCAR-8
NCI-H522 = tested on: NCI-H522
NCI/ADR-RES = tested on: NCI/ADR-RES
RPMI-8226 = tested on: RPMI-8226
786-0 = tested on: 786-0
HCT-15 = tested on: HCT-15
CAKI-1 = tested on: CAKI-1
A498 = tested on: A498
OVCAR-4 = tested on: OVCAR-4
HCC 2998 = tested on: HCC 2998
LOX IMVI = tested on: LOX IMVI
PC-3 = tested on: PC-3
K562 = tested on: K562
T47D = tested on: T47D

Compound | GI50 (SK-MEL-2) | GI50 (EKVX) | GI50 (UACC-257) | GI50 (UACC-62) | GI50 (DU-145) | GI50 (SN12C) | GI50 (OVCAR-8) | GI50 (NCI-H522) | GI50 (NCI/ADR-RES) | GI50 (RPMI-8226) | GI50 (786-0) | GI50 (HCT-15) | GI50 (CAKI-1) | GI50 (A498) | GI50 (OVCAR-4) | GI50 (HCC 2998) | GI50 (LOX IMVI) | GI50 (PC-3) | GI50 (K562) | GI50 (T47D)
Nc1ccc(Oc2ccc(C3(c4ccc(Oc5ccc(N)cc5)cc4)C4CC5CC(C4)CC3C5)cc2)cc1 | 23 µM (inactive) | 9.53 µM (inactive) | 6.67 µM (inactive) | 17.3 µM (inactive) | 6.64 µM (inactive) | 6.28 µM (inactive) | 9.18 µM (inactive) | 11 µM (inactive) | 15.8 µM (inactive) | 3 µM (inactive) | 4.57 µM (inactive) | 4.94 µM | 15.8 µM (inactive) | 2.91 µM (inactive) | 8.71 µM (inactive) | 0.322 µM (active) | 7.31 µM (inactive) | 5.7 µM (inactive) | 3.89 µM (inactive) | –
CC(=O)Nc1ccc(C(=O)NN2C(=O)C(Cl)C2c2cc(Br)ccc2O)cc1 (stereo unspecified) | 4.86 µM (inactive) | 28.8 µM (inactive) | 3.93 µM (inactive) | 3.85 µM (inactive) | 6.14 µM (inactive) | 8.71 µM (inactive) | 6.52 µM (inactive) | 6.55 µM (inactive) | 3.65 µM (inactive) | 12.1 µM (inactive) | 3.54 µM (inactive) | 2.14 µM | – | – | 3.76 µM (inactive) | 11.2 µM (inactive) | – | 3.88 µM (inactive) | 6.41 µM (inactive) | 4.16 µM (inactive)
COc1c(-c2nc3ccc(N4CCN(C)CC4)nc3[nH]2)cc(OC)c2c1nc(CO)n2C | > 100 µM (inactive) | > 100 µM (inactive) | > 100 µM (inactive) | > 100 µM (inactive) | > 100 µM (inactive) | > 100 µM (inactive) | > 100 µM (inactive) | > 100 µM (inactive) | > 100 µM (inactive) | > 100 µM (inactive) | > 100 µM (inactive) | > 100 µM | > 100 µM (inactive) | – | > 100 µM (inactive) | > 100 µM (inactive) | > 100 µM (inactive) | > 100 µM (inactive) | > 100 µM (inactive) | > 100 µM (inactive)
NCC(=O)N1CCN(c2nc(N3CCCC3)c3nc(Cl)c(NCc4ccccc4)nc3n2)CC1 | 1.86 µM (inactive) | 1.87 µM (inactive) | 1.74 µM (inactive) | 1.8 µM (inactive) | 2.41 µM (inactive) | 1.85 µM (inactive) | 1.77 µM (inactive) | 1.78 µM (inactive) | 8.26 µM (inactive) | – | 1.69 µM (inactive) | 1.97 µM | 2.44 µM (inactive) | – | 2.15 µM (inactive) | 1.66 µM (inactive) | 1.78 µM (inactive) | 2.48 µM (inactive) | – | 1.42 µM (inactive)
CC(C)[Si](Oc1ccc(CC2N(C(=O)c3ccc([N+](=O)[O-])cc3)C(CCc3ccccc3)CC2(C)C=O)cc1)(C(C)C)C(C)C (stereo unspecified) | 86.7 µM (inactive) | 82.6 µM (inactive) | > 100 µM (inactive) | > 100 µM (inactive) | 61.1 µM (inactive) | – | 13.6 µM (inactive) | > 100 µM (inactive) | – | > 100 µM (inactive) | 17.2 µM (inactive) | 5.6 µM | > 100 µM (inactive) | > 100 µM (inactive) | > 100 µM (inactive) | > 100 µM (inactive) | > 100 µM (inactive) | > 100 µM (inactive) | – | > 100 µM (inactive)
CSc1nc2c(c(=O)n1C)N=C(c1ccccc1)[C@H](C(CC(=O)c1ccccc1)c1ccccc1)C(c1ccccc1)N2 (stereo partly specified) | > 100 µM (inactive) | 15.8 µM (inactive) | > 100 µM (inactive) | > 100 µM (inactive) | > 100 µM (inactive) | > 100 µM (inactive) | > 100 µM (inactive) | 20.5 µM (inactive) | 76.6 µM (inactive) | 19 µM (inactive) | > 100 µM (inactive) | > 100 µM | > 100 µM (inactive) | > 100 µM (inactive) | 23.6 µM (inactive) | > 100 µM (inactive) | > 100 µM (inactive) | 9.84 µM (inactive) | 54.5 µM (inactive) | –
Cc1[nH]c2ncn(N)c(=N)c2c1Cc1ccccc1 | > 100 µM (inactive) | > 100 µM (inactive) | > 100 µM (inactive) | 58.1 µM (inactive) | – | > 100 µM (inactive) | > 100 µM (inactive) | 49.2 µM (inactive) | 82 µM (inactive) | > 100 µM (inactive) | > 100 µM (inactive) | > 100 µM | > 100 µM (inactive) | > 100 µM (inactive) | > 100 µM (inactive) | > 100 µM (inactive) | 67.1 µM (inactive) | 30.6 µM (inactive) | > 100 µM (inactive) | 4.35 µM (inactive)
CCc1cccc(CC)c1NC(=O)C(C#N)C1=C(Cl)C(=O)c2ccccc2C1=O (stereo unspecified) | 18.8 µM (inactive) | 21.1 µM (inactive) | 17.4 µM (inactive) | 17.5 µM (inactive) | 16.8 µM (inactive) | 16.7 µM (inactive) | 19.8 µM (inactive) | 8.55 µM (inactive) | – | 4.56 µM (inactive) | 16.4 µM (inactive) | 20.6 µM | 15.6 µM (inactive) | 19 µM (inactive) | 16.6 µM (inactive) | 16.9 µM (inactive) | 12.7 µM (inactive) | 13 µM (inactive) | 2.33 µM (inactive) | 3.79 µM (inactive)
CC(C)[N+]([O-])(CCCNc1c2ccccc2nc2cccc([N+](=O)[O-])c12)C(C)C | 0.234 µM (active) | < 0.0367 µM (active) | 0.064 µM (active) | 0.148 µM (active) | < 0.026 µM (active) | 0.0551 µM (active) | < 0.0458 µM (active) | 0.0294 µM (active) | 0.581 µM (active) | < 0.0179 µM (active) | 0.0467 µM (active) | – | 0.492 µM (active) | < 0.0452 µM (active) | 0.153 µM (active) | < 0.01 µM (active) | 0.0619 µM (active) | < 0.0473 µM (active) | < 0.0355 µM (active) | –
CN(C(=O)C1CCCCCC1=O)c1ccccc1Cl (stereo unspecified) | – | > 100 µM (inactive) | > 100 µM (inactive) | – | > 100 µM (inactive) | > 100 µM (inactive) | > 100 µM (inactive) | > 100 µM (inactive) | > 100 µM (inactive) | > 100 µM (inactive) | > 100 µM (inactive) | > 100 µM | > 100 µM (inactive) | > 100 µM (inactive) | > 100 µM (inactive) | – | > 100 µM (inactive) | – | – | > 100 µM (inactive)
CC1(C)C(=O)/C=C\C(=O)C(C)(C)C(=O)/C=C\C(=O)C(C)(C)C(=O)/C=C\C(=O)C(C)(C)C(=O)/C=C\C1=O | 25.2 µM (inactive) | 39.6 µM (inactive) | 23.3 µM (inactive) | 21.9 µM (inactive) | > 100 µM (inactive) | 24.3 µM (inactive) | 19.7 µM (inactive) | 8.41 µM (inactive) | – | 4.97 µM (inactive) | 24.1 µM (inactive) | 20.4 µM | 12.6 µM (inactive) | > 68.5 µM (inactive) | 30.3 µM (inactive) | – | 25.2 µM (inactive) | > 100 µM (inactive) | 5.43 µM (inactive) | 30.8 µM (inactive)
CCC12CCCN(Cc3ccccc3)C1c1c([nH]c3ccccc13)C(C(=O)OC)C2 (stereo unspecified) | – | – | > 10 µM (inactive) | > 10 µM (inactive) | > 10 µM (inactive) | > 10 µM (inactive) | > 10 µM (inactive) | > 10 µM (inactive) | > 10 µM (inactive) | > 10 µM (inactive) | > 10 µM (inactive) | > 10 µM | > 10 µM (inactive) | – | > 10 µM (inactive) | > 10 µM (inactive) | > 10 µM (inactive) | > 10 µM (inactive) | > 10 µM (inactive) | 5.75 µM (inactive)
Cc1ccc(/C=C2\N=C(N3CCCC(CO)C3)NC2=O)cc1 (stereo unspecified) | > 100 µM (inactive) | > 100 µM (inactive) | > 100 µM (inactive) | > 100 µM (inactive) | > 100 µM (inactive) | > 100 µM (inactive) | > 100 µM (inactive) | > 100 µM (inactive) | > 100 µM (inactive) | > 100 µM (inactive) | > 100 µM (inactive) | > 100 µM | > 100 µM (inactive) | – | > 100 µM (inactive) | > 100 µM (inactive) | > 100 µM (inactive) | > 100 µM (inactive) | > 100 µM (inactive) | > 100 µM (inactive)
O=C(/C=C/c1ccc2c(c1)OCO2)c1ccc(O)cc1 | 16.9 µM (inactive) | 16.6 µM (inactive) | 15.3 µM (inactive) | 16.8 µM (inactive) | 16.5 µM (inactive) | 15.5 µM (inactive) | 1.64 µM (inactive) | 3.01 µM (inactive) | 1.76 µM (inactive) | – | 1.63 µM (inactive) | 13.4 µM | 15.2 µM (inactive) | 23.4 µM (inactive) | 18.4 µM (inactive) | 17.9 µM (inactive) | 11.2 µM (inactive) | 15 µM (inactive) | 5.58 µM (inactive) | –
CCC(c1ccc(N(C)C)cc1)C1NC(=S)NC1=O (stereo unspecified) | – | 51.5 µM (inactive) | > 100 µM (inactive) | – | > 100 µM (inactive) | > 100 µM (inactive) | > 100 µM (inactive) | > 100 µM (inactive) | > 100 µM (inactive) | 46 µM (inactive) | > 100 µM (inactive) | 40.2 µM | > 100 µM (inactive) | 50.6 µM (inactive) | 62.7 µM (inactive) | > 100 µM (inactive) | 97.9 µM (inactive) | – | 20.1 µM (inactive) | 78.3 µM (inactive)
COc1ccc(/N=C2\S/C(=N\C(=N\c3ccccc3)SCc3ccccc3)N(c3ccccc3)\C2=N/c2ccc(OC)cc2)cc1 | > 100 µM (inactive) | > 100 µM (inactive) | > 100 µM (inactive) | > 100 µM (inactive) | – | > 100 µM (inactive) | > 100 µM (inactive) | – | – | > 100 µM (inactive) | > 100 µM (inactive) | > 100 µM | – | – | – | > 100 µM (inactive) | – | > 100 µM (inactive) | > 100 µM (inactive) | > 100 µM (inactive)
